Measurements reported in PubChem BioAssay (NCI).
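Five compound concentrations were applied to cells in 96-well plates for 48 hours; endpoints were derived by simple linear interpolation of the resulting dose-response curve. TGI: concentration producing complete growth inhibition.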

What was measured:
Assay in all cases: NCI tumour cell line growth inhibition, 48 h
[1] = system: NCI-H23 lung
[2] = system: NCI-H460 lung
[3] = system: XF 498 CNS
[4] = system: K-562 leukemia
[5] = system: OVCAR-4 ovarian
[6] = system: HCT-116 colon
[7] = system: SK-MEL-5 melanoma
[8] = system: SK-OV-3 ovarian
[9] = system: DMS 114 small cell lung
[10] = system: SNB-78 CNS
[11] = system: LXFL 529 NSCLC
[12] = system: SW-620 colon
[13] = system: 786-0 renal
[14] = system: OVCAR-5 ovarian
[15] = system: A498 renal
[16] = system: SNB-19 CNS
[17] = system: SF-295 CNS
[18] = system: HOP-18 NSCLC
[19] = system: SNB-75 CNS
[20] = system: CCRF-CEM leukemia
[21] = system: HT29 colon
[22] = system: NCI-H226 lung
[23] = system: U251 CNS
[24] = system: HOP-92 NSCLC
[25] = system: HCT-15 colon
[26] = system: HCC-2998 colon
[27] = system: SF-268 CNS
[28] = system: MOLT-4 leukemia
[29] = system: TK-10 renal
[30] = system: SN12C renal
[31] = system: OVCAR-3 ovarian
[32] = system: COLO 205 colon
[33] = system: UACC-257 melanoma
[34] = system: KM12 colon
[35] = system: HL-60(TB) leukemia
[36] = system: SF-539 CNS
[37] = system: KM20L2 colon
[38] = system: LOX IMVI melanoma
[39] = system: CAKI-1 renal
[40] = system: SR leukemia
[41] = system: OVCAR-8 ovarian
[42] = system: UO-31 renal
[43] = system: IGROV1 ovarian
[44] = system: ACHN renal
[45] = system: HOP-62 NSCLC
[46] = system: DMS 273 small cell lung
[47] = system: MALME-3M melanoma
[48] = system: EKVX NSCLC
[49] = system: RPMI-8226 leukemia
[50] = system: DLD-1 colon
[51] = system: RXF 393 renal
[52] = system: NCI-H522 lung
[53] = system: M19-MEL melanoma
[54] = system: SK-MEL-28 melanoma
[55] = system: UACC-62 melanoma
[56] = system: A549 NSCLC
[57] = system: SK-MEL-2 melanoma
[58] = system: M14 melanoma

Compound: COc1cc(/C=C2\CCC(C)(CN(C)C)C2=O)cc(OC)c1OC (stereo not given)
- TGI [1]: > 100 µM
- TGI [2]: > 100 µM
- TGI [3]: > 100 µM
- TGI [4]: > 100 µM
- TGI [5]: > 100 µM
- TGI [6]: > 100 µM
- TGI [7]: > 100 µM
- TGI [8]: > 100 µM
- TGI [9]: > 100 µM
- TGI [10]: 99.4 µM
- TGI [11]: > 100 µM
- TGI [12]: > 100 µM
- TGI [13]: > 100 µM
- TGI [14]: > 100 µM
- TGI [15]: > 100 µM
- TGI [16]: > 100 µM
- TGI [17]: > 100 µM
- TGI [18]: > 100 µM
- TGI [19]: > 100 µM
- TGI [20]: > 100 µM
- TGI [21]: > 100 µM
- TGI [22]: > 100 µM
- TGI [23]: > 100 µM
- TGI [24]: > 100 µM
- TGI [25]: > 100 µM
- TGI [26]: > 100 µM
- TGI [27]: > 100 µM
- TGI [28]: > 100 µM
- TGI [29]: > 100 µM
- TGI [30]: > 100 µM
- TGI [31]: > 100 µM
- TGI [32]: > 100 µM
- TGI [33]: > 100 µM
- TGI [34]: > 100 µM
- TGI [35]: > 67.2 µM
- TGI [36]: > 100 µM
- TGI [37]: > 100 µM
- TGI [38]: > 100 µM
- TGI [39]: > 100 µM
- TGI [40]: > 100 µM
- TGI [41]: > 100 µM
- TGI [42]: > 100 µM
- TGI [43]: > 100 µM
- TGI [44]: > 100 µM
- TGI [45]: > 100 µM
- TGI [46]: > 100 µM
- TGI [47]: > 100 µM
- TGI [48]: > 88.3 µM
- TGI [49]: > 72.9 µM
- TGI [50]: > 100 µM
- TGI [51]: > 100 µM
- TGI [52]: > 100 µM
- TGI [53]: > 100 µM
- TGI [54]: > 100 µM
- TGI [55]: > 100 µM
- TGI [56]: > 100 µM
- TGI [57]: > 100 µM
- TGI [58]: > 100 µM

Compound: CC(C)(C)OC(=O)C1=C(O)C(C(=O)OC(C)(C)C)C23CCCCC12C(C(=O)OC(C)(C)C)C(O)=C3C(=O)OC(C)(C)C (stereo not given)
- TGI [1]: > 100 µM
- TGI [2]: > 100 µM
- TGI [3]: > 100 µM
- TGI [4]: > 100 µM
- TGI [5]: > 100 µM
- TGI [6]: > 100 µM
- TGI [7]: > 100 µM
- TGI [8]: > 100 µM
- TGI [9]: > 100 µM
- TGI [10]: > 100 µM
- TGI [11]: > 100 µM
- TGI [12]: > 100 µM
- TGI [13]: > 100 µM
- TGI [14]: > 100 µM
- TGI [15]: > 100 µM
- TGI [16]: > 100 µM
- TGI [17]: > 100 µM
- TGI [18]: > 100 µM
- TGI [19]: > 100 µM
- TGI [20]: > 100 µM
- TGI [21]: > 100 µM
- TGI [22]: > 100 µM
- TGI [23]: > 100 µM
- TGI [24]: > 100 µM
- TGI [25]: > 100 µM
- TGI [26]: > 100 µM
- TGI [27]: > 100 µM
- TGI [28]: > 100 µM
- TGI [29]: > 100 µM
- TGI [30]: > 100 µM
- TGI [31]: > 100 µM
- TGI [32]: > 100 µM
- TGI [33]: > 100 µM
- TGI [34]: > 100 µM
- TGI [35]: > 100 µM
- TGI [36]: > 100 µM
- TGI [37]: > 100 µM
- TGI [38]: > 100 µM
- TGI [39]: > 100 µM
- TGI [40]: > 100 µM
- TGI [41]: > 100 µM
- TGI [42]: > 100 µM
- TGI [43]: > 100 µM
- TGI [44]: > 100 µM
- TGI [45]: > 100 µM
- TGI [46]: > 100 µM
- TGI [47]: > 100 µM
- TGI [48]: > 100 µM
- TGI [49]: > 100 µM
- TGI [50]: > 100 µM
- TGI [51]: > 100 µM
- TGI [52]: > 100 µM
- TGI [53]: > 100 µM
- TGI [55]: > 100 µM
- TGI [56]: > 100 µM
- TGI [57]: > 100 µM
- TGI [58]: > 100 µM
